These results are taken from publication PMC10353187, “Discovery of a new potent oxindole multi-kinase inhibitor among a series of designed 3-alkenyl-oxindoles with ancillary carbonic anhydrase inhibitory activity as antiproliferative agents” (BMC Chemistry, 2023).

Holding throughout (experiment): Z'-LYTE kinase inhibition assay (SelectScreen)
Holding throughout (format): biochemical

One experiment has as its target T1, Kit (Homo sapiens, UniProt P10721).
T1 construct: purchased Thermo Fischer Scientific (SelectScreen service)
The procedure: (§1) To test the potential kinase inhibitory activity of compound 15c, initial single dose testing was performed at 10 μM on a panel of kinases and their inhibition % were determined.
(§2) The FGFR, VEGFR-2 and RET tyrosine kinase assays were carried out at Thermo Fischer Scientific, USA (www.thermofischer.com/selectscreen). (For further details see Additional file 1; S3: In vitro biological activity).
(§3) The FGFR, VEGFR-2 and RET tyrosine kinase assays were performed at Thermo Fischer Scientific, USA (www.thermofischer.com/selectscreen). The assay was performed to evaluate the inhibitory activity of the designed compound applying the Z'-LYTE biochemical assay employing a fluorescence-based, coupled-enzyme format based on the differential sensitivity of phosphorylate and non-phosphorylate peptides to the proteolytic cleavage. The peptide substrate is characterized with two fluorophores, one at each end, that make up a FRET pair ^9.
(§4) The Z´-LYTE biochemical assay employs a fluorescence-based, coupled-enzyme format and is based on the differential sensitivity of phosphorylated and non-phosphorylated peptides to proteolytic cleavage. The peptide substrate is labeled with two fluorophores—one at each end—that make up a FRET pair. In the primary reaction, the kinase transfers the gamma-phosphate of ATP to a single tyrosine, serine or threonine residue in a synthetic FRET-peptide. In the secondary reaction, a site-specific protease recognizes and cleaves non-phosphorylated FRET-peptides. Phosphorylation of FRET-peptides suppresses cleavage by the Development Reagent. Cleavage disrupts FRET between the donor (i.e., coumarin) and acceptor (i.e., fluorescein) fluorophores on the FRET-peptide, whereas uncleaved, phosphorylated FRET-peptides maintain FRET. A ratiometric method, which calculates the ratio (the Emission Ratio) of donor emission to acceptor emission after excitation of the donor fluorophore at 400 nm, is used to quantitate reaction progress, as shown in the equation below. A significant benefit of this ratiometric method for quantitating reaction progress is the elimination of wellto-well variations in FRET-peptide concentration and signal intensities. […]. Both cleaved and uncleaved FRET-peptides contribute to the fluorescence signals and therefore to the Emission Ratio. The extent of phosphorylation of the FRET-peptide can be calculated from the Emission Ratio. The Emission Ratio will remain low if the FRET-peptide is phosphorylated (i.e., no kinase inhibition) and will be high if the FRET-peptide is non-phosphorylated (i.e., kinase inhibition).
(§5) Test Compounds the Test Compounds are screened in 1% DMSO (final) in the well. For 10 point titrations, 3-fold serial dilutions are conducted from the starting concentration of the customer’s choosing. Peptide/Kinase Mixtures All Peptide/Kinase Mixtures are diluted to a 2X working concentration in the appropriate Kinase Buffer (see section Kinase Specific Assay Conditions for a complete description). ATP Solution All ATP Solutions are diluted to a 4X working concentration in Kinase Buffer (50 mM HEPES pH 7.5, 0.01% BRIJ-35, 10 mM MgCl2, 1 mM EGTA). ATP Km apparent is previously determined using a Z´-LYTE assay.

The next experiment has as its target T2, BRAF (Homo sapiens, UniProt P15056).
T2 construct: purchased Thermo Fischer Scientific (SelectScreen service)
The procedure: as §1, §2, §3, §4, §5

In the next experiment the target is T3, c-Met (Homo sapiens, UniProt P08581).
T3 construct: purchased Thermo Fischer Scientific (SelectScreen service)
As for the experimental part:
as §1, §2, §3, §4, §5

A further experiment addresses T4, PDGFRA (PDGFR alpha) (Homo sapiens, UniProt P16234).
T4 construct: purchased Thermo Fischer Scientific (SelectScreen service)
As for the experimental part:
as §1, §2, §3, §4, §5

Another experiment concerns the target T5, VEGFR 1(FLT1) (Homo sapiens, UniProt P17948).
T5 construct: purchased Thermo Fischer Scientific (SelectScreen service)
As for the experimental part:
as §1, §2, §3, §4, §5

The next experiment concerns the target T6, RET (Homo sapiens, UniProt P07949).
T6 construct: purchased Thermo Fischer Scientific (SelectScreen service)
The procedure:
as §1
(§6) […]. Additional file 1; S3: In vitro biological activity).
as §2, §3, §4, §5

The next experiment deals with T7, FGFR 1 (Homo sapiens, UniProt P11362).
T7 construct: purchased Thermo Fischer Scientific (SelectScreen service)
T7 sequence (P11362 22-822): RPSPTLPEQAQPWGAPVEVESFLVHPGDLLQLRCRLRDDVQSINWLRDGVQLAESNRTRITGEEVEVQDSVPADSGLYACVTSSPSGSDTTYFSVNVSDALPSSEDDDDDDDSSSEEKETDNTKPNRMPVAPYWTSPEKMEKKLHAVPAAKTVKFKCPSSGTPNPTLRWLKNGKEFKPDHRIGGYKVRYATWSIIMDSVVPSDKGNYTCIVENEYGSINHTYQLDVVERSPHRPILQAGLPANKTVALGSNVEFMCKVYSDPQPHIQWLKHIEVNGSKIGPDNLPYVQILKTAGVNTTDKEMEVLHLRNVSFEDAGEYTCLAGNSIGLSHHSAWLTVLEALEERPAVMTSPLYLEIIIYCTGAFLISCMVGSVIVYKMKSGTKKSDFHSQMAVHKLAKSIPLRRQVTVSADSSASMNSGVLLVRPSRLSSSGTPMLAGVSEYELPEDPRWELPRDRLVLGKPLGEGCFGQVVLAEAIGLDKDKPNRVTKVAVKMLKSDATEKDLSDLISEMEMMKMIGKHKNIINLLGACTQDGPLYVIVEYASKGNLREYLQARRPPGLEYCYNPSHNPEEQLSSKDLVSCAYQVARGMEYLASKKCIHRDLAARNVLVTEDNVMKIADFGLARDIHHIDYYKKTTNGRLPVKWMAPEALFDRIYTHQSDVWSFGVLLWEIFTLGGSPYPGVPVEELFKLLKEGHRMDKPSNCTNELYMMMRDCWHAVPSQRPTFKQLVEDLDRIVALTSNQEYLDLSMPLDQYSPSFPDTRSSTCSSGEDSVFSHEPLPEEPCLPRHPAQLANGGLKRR
The procedure:
as §1, §6, §2, §3, §4, §5

A further experiment has as its target T8, VEGFR 2(KDR) (Homo sapiens, UniProt P35968).
T8 construct: purchased Thermo Fischer Scientific (SelectScreen service)
As for the experimental part: as §1, §6, §2, §3, §4, §5

The mark [1] stands for this setting: five concentrations 10 nM–100 μM.

T8 sequence (P35968 20-1356): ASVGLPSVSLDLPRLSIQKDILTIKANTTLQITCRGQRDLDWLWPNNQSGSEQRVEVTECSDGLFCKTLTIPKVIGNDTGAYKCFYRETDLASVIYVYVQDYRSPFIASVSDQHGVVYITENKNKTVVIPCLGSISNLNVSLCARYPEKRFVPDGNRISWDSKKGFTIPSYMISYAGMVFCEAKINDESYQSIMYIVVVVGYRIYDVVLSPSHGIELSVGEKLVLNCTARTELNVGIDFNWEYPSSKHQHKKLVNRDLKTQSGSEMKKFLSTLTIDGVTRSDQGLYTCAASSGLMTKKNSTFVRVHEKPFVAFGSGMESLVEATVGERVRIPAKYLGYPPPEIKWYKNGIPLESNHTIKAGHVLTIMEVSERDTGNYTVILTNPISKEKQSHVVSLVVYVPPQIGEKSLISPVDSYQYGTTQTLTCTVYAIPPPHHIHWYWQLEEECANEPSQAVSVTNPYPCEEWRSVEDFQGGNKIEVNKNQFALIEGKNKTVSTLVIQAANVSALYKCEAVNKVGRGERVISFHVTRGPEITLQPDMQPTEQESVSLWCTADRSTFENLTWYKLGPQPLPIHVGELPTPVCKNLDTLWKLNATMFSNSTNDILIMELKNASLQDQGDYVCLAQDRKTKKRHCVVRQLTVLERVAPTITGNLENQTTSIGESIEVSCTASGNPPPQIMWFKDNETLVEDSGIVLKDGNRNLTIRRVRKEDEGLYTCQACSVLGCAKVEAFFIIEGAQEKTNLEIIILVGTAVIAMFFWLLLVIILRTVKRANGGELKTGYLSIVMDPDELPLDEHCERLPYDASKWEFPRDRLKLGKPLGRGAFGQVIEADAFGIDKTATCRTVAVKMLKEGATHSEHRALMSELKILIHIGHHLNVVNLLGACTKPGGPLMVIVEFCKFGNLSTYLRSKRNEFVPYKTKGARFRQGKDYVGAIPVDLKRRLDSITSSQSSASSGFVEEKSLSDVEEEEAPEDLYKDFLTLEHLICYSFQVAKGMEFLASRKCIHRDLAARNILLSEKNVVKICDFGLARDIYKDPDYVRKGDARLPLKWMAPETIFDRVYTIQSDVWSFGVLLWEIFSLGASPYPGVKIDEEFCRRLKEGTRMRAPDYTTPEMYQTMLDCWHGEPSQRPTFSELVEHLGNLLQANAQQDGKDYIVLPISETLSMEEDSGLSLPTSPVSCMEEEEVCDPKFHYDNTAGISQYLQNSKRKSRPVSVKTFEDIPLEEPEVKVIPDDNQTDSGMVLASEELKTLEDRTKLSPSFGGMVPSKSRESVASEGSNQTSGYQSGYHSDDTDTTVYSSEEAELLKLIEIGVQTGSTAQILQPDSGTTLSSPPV
T6 sequence (P07949 29-1114): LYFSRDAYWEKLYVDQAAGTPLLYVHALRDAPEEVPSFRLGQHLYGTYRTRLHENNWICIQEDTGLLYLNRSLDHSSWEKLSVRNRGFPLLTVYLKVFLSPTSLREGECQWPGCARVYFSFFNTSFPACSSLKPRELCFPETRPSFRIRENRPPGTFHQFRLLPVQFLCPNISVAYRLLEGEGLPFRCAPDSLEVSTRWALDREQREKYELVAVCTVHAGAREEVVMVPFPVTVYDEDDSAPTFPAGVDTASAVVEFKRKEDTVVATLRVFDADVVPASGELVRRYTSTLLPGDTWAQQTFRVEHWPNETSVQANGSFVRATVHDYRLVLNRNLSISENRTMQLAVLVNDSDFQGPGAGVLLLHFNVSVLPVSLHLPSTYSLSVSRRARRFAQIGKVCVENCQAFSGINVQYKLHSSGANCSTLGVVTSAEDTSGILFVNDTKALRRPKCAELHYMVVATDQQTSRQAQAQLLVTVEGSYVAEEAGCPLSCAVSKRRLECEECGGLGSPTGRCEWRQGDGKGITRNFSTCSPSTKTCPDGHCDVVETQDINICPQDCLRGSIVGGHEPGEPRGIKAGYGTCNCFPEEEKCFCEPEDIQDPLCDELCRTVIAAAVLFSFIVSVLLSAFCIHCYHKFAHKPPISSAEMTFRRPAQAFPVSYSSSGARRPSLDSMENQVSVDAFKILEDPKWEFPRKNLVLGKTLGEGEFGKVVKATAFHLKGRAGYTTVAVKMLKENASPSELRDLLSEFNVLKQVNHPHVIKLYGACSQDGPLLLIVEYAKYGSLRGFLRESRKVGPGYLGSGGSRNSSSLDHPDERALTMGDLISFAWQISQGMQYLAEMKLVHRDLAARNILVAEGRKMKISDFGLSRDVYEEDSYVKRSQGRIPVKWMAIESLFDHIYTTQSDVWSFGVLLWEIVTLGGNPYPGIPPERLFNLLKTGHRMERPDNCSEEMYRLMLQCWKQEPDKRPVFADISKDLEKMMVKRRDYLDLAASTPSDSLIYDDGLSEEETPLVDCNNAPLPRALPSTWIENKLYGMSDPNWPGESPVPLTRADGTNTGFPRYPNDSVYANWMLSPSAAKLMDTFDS
T5 sequence (P17948 27-1338): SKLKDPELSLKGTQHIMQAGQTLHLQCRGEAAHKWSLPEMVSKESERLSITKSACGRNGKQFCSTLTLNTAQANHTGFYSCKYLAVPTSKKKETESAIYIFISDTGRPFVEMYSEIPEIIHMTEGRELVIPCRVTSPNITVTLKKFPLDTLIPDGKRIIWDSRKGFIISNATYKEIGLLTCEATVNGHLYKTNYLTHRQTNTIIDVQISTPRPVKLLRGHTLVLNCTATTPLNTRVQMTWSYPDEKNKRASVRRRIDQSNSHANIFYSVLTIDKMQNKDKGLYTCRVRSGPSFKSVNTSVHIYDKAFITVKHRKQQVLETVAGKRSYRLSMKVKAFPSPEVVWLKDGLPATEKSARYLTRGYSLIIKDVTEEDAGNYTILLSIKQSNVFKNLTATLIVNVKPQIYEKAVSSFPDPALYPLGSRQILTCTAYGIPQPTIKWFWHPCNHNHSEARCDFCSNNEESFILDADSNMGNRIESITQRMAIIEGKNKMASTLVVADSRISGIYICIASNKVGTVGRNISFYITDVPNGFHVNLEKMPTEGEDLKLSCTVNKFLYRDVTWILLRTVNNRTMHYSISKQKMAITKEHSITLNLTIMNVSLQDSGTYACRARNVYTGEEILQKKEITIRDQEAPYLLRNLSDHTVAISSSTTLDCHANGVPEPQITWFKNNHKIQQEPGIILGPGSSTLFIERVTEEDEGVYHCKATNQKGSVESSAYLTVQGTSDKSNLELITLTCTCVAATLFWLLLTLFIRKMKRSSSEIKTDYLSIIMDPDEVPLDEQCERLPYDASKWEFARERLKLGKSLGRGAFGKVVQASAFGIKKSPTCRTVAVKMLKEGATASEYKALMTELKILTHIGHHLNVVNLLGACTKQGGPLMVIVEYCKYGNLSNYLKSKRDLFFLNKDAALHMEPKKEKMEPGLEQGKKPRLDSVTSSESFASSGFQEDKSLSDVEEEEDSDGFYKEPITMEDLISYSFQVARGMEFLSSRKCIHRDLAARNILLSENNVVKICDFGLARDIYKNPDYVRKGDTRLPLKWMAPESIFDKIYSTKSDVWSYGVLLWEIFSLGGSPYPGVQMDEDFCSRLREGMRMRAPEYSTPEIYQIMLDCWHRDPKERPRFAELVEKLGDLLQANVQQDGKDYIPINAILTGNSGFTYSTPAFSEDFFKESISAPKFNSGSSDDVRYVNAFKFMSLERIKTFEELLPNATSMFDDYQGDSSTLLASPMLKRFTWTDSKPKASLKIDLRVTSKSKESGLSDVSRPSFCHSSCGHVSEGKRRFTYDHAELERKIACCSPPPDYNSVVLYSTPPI

With `O=C(Nc1ccc(NC=C2C(=O)Nc3ccccc32)cc1)Nc1nccs1` [Compound 15c, 1-{4-[((2-Oxoindolin-3-ylidene)methyl)amino]phenyl}-3-(thiazol-2-yl)urea], the inhibition at 10 µM is 31% at Kit; 69% against BRAF; 62% at c-Met; 59% against PDGFRA (PDGFR alpha); 40% at VEGFR 1(FLT1); 74% on RET (10 uM). Besides, the values for the inhibition at 10 µM at FGFR 1 (10 uM) and against VEGFR 2(KDR) (10 uM) were 74% and 73%, respectively. Further, the IC50 at RET (setting [1]) was 1190 nM; against FGFR 1 (setting [1]) it was 1290 nM; against VEGFR 2(KDR) (setting [1]), 117 nM.

What is called inhibition is the relative decrease from the control value, in per cent. One may read the IC50 as the concentration that gives 50% inhibition. Lower therefore signals inhibition by little substance.
